Assay results from patent US5290817A, “Substituted 1-benzylindanes and their use as inhibitors of phospholipase A2” (The Du Pont Merck Pharmaceutical Co., priority 1992, dated 1994).

Legend:
[1] = test system: porcine pancreatic phospolipase A2; conditions: Ripka et al., Journal of Cellular Biochemistry, 40, 279-286 (1989); cited from earlier work
[2] = molecular target: PLA2 from Crotalus adamanteus (Crotalus adamanteus, UniProt P00623); assay: biochemical; set-up: species or system Crotalus adamanteus (snake venom)
PLA2 from Crotalus adamanteus, sequence (P00623 17-138 limits assumed): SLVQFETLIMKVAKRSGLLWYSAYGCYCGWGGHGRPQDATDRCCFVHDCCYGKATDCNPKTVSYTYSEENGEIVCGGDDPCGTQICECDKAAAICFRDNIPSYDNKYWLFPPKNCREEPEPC

[3] = Carrageenan Paw Edema Assay; format: in vivo, rat (male Sprague-Dawley); conditions: 50 mg/kg, intraperitoneal, paw volume at three hours; n = 3
Description: The test procedure is as follows: male Caesarian-derived Sprague-Dawley rates from Charles River Laboratories are maintained on rat chow and water ad libidum and on a 12 hour light/12 hour dark cycle until they weight 160-210 grams.
One drop of Tween 80 per 10 ml of methylcellulose and 4 mm glass beads are added to each suspension. Each compound is bead-milled for one hour prior to use.
Dosing is intraperitioneal.
After dosing, all animals are given tap water so that the total volumes of fluid administered to each rat orally is 5.0 ml. This achieves uniform hydration of the rats and thus minimizes variability of the edematous response in the paw.
Sigma Type IV lambda carrageenan (Sigma Chemical Company, St. Louis, Mo., #C3889) is suspended in 0.9% sterile saline usually as a 1% solution (100 mg/10 ml). This preparation is bead-milled one hour prior to use. […]
Immediately following injection initial paw volume readings are taken, and then again three hours later using a Ugo Basile volume plethysmometer. The differences between the initial reading and the three hour reading is then calculated. Means; S.E.M. of these difference are determined for each group. The percent decrease from the control volumes are calculated using the following formula: [formula] Data are evaluated using the Student's t-test and p 0.05 is considered significant.

SMILES	inhibitory activity against porcine pancreatic phospolipase A2 [1]	IC50 [2]	Carr. Paw Edemia Inhib. % [3]
Oc1cccc(CC2CCc3ccccc32)c1 (stereo not drawn)	claimed to possess inhibitory activity	–	–
O=CCc1cccc(CC2CCc3ccccc32)c1 (stereo not drawn) [Ex. 12, 3-(2',3'-Dihydroinden-1'-ylmethyl)-phenylacetaldehyde]	–	2400 nM	51%
